Data published in BigSolDB 2.1.

Compound `O=C(O)/C=C/c1ccc(Cl)cc1` has a solubility (mole fraction) (in 1,4-dioxane, 288.15 K) of 0.00826, a solubility (mole fraction) (in 1,4-dioxane, 293.15 K) of 0.0094 and a solubility (mole fraction) (in 1,4-dioxane, 298.15 K) of 0.0106. The solubility (mole fraction) (in 1,4-dioxane, 303.15 K) was 0.0118, the solubility (mole fraction) (in 1,4-dioxane, 308.15 K) was 0.0132 and the solubility (mole fraction) (in 1,4-dioxane, 313.15 K) was 0.0148. The solubility (mole fraction) (in 1,4-dioxane, 318.15 K) was 0.0158, the solubility (mole fraction) (in 1,4-dioxane, 323.15 K) was 0.018 and the solubility (mole fraction) (in acetone, 283.15 K) was 0.00214. The solubility (mole fraction) (in acetone, 288.15 K) was 0.00248, the solubility (mole fraction) (in acetone, 293.15 K) was 0.00303 and the solubility (mole fraction) (in acetone, 298.15 K) was 0.00334. For the same compound, the solubility (mole fraction) (in acetone, 303.15 K) was 0.00388, the solubility (mole fraction) (in acetone, 308.15 K) was 0.00434 and the solubility (mole fraction) (in acetone, 313.15 K) was 0.00509. The solubility (mole fraction) (in acetone, 318.15 K) was 0.00556, the solubility (mole fraction) (in acetone, 323.15 K) was 0.00654 and the solubility (mole fraction) (in acetonitrile, 283.15 K) was 0.000318. It also gave a solubility (mole fraction) (in acetonitrile, 288.15 K) of 0.000351, a solubility (mole fraction) (in acetonitrile, 293.15 K) of 0.000365 and a solubility (mole fraction) (in acetonitrile, 298.15 K) of 0.000425. It also gave a solubility (mole fraction) (in acetonitrile, 303.15 K) of 0.000468, a solubility (mole fraction) (in acetonitrile, 308.15 K) of 0.000515 and a solubility (mole fraction) (in acetonitrile, 313.15 K) of 0.000622. It also gave a solubility (mole fraction) (in acetonitrile, 318.15 K) of 0.000803, a solubility (mole fraction) (in acetonitrile, 323.15 K) of 0.00105 and a solubility (mole fraction) (in ethanol, 283.15 K) of 0.00136. It also gave a solubility (mole fraction) (in ethanol, 288.15 K) of 0.00166, a solubility (mole fraction) (in ethanol, 293.15 K) of 0.00184 and a solubility (mole fraction) (in ethanol, 298.15 K) of 0.00207. It also gave a solubility (mole fraction) (in ethanol, 303.15 K) of 0.00238, a solubility (mole fraction) (in ethanol, 308.15 K) of 0.00265 and a solubility (mole fraction) (in ethanol, 313.15 K) of 0.00317. The solubility (mole fraction) (in ethanol, 318.15 K) was 0.00363, the solubility (mole fraction) (in ethanol, 323.15 K) was 0.004 and the solubility (mole fraction) (in ethyl acetate, 283.15 K) was 0.00159. For the same compound, the solubility (mole fraction) (in ethyl acetate, 288.15 K) was 0.00166, the solubility (mole fraction) (in ethyl acetate, 293.15 K) was 0.0019 and the solubility (mole fraction) (in ethyl acetate, 298.15 K) was 0.00214. The solubility (mole fraction) (in ethyl acetate, 303.15 K) was 0.00242, the solubility (mole fraction) (in ethyl acetate, 308.15 K) was 0.00266 and the solubility (mole fraction) (in ethyl acetate, 313.15 K) was 0.00315. It also gave a solubility (mole fraction) (in ethyl acetate, 318.15 K) of 0.00379, a solubility (mole fraction) (in ethyl acetate, 323.15 K) of 0.00442 and a solubility (mole fraction) (in isobutanol, 283.15 K) of 0.00102. For the same compound, the solubility (mole fraction) (in isobutanol, 288.15 K) was 0.00125, the solubility (mole fraction) (in isobutanol, 293.15 K) was 0.00154 and the solubility (mole fraction) (in isobutanol, 298.15 K) was 0.00177. The solubility (mole fraction) (in isobutanol, 303.15 K) was 0.00195, the solubility (mole fraction) (in isobutanol, 308.15 K) was 0.00223 and the solubility (mole fraction) (in isobutanol, 313.15 K) was 0.00244. The solubility (mole fraction) (in isobutanol, 318.15 K) was 0.00282, the solubility (mole fraction) (in isobutanol, 323.15 K) was 0.00325 and the solubility (mole fraction) (in isopropanol, 283.15 K) was 0.00118. The solubility (mole fraction) (in isopropanol, 288.15 K) was 0.00141, the solubility (mole fraction) (in isopropanol, 293.15 K) was 0.00165 and the solubility (mole fraction) (in isopropanol, 298.15 K) was 0.0019. It also gave a solubility (mole fraction) (in isopropanol, 303.15 K) of 0.00215, a solubility (mole fraction) (in isopropanol, 308.15 K) of 0.00255 and a solubility (mole fraction) (in isopropanol, 313.15 K) of 0.0029. It also gave a solubility (mole fraction) (in isopropanol, 318.15 K) of 0.00359, a solubility (mole fraction) (in isopropanol, 323.15 K) of 0.00454 and a solubility (mole fraction) (in methanol, 283.15 K) of 0.00112. It also gave a solubility (mole fraction) (in methanol, 288.15 K) of 0.00123, a solubility (mole fraction) (in methanol, 293.15 K) of 0.00136 and a solubility (mole fraction) (in methanol, 298.15 K) of 0.00155. It also gave a solubility (mole fraction) (in methanol, 303.15 K) of 0.00172, a solubility (mole fraction) (in methanol, 308.15 K) of 0.00187 and a solubility (mole fraction) (in methanol, 313.15 K) of 0.00206. For the same compound, the solubility (mole fraction) (in methanol, 318.15 K) was 0.00233, the solubility (mole fraction) (in methanol, 323.15 K) was 0.00251 and the solubility (mole fraction) (in methyl acetate, 283.15 K) was 0.00142. The solubility (mole fraction) (in methyl acetate, 288.15 K) was 0.00173, the solubility (mole fraction) (in methyl acetate, 293.15 K) was 0.00201 and the solubility (mole fraction) (in methyl acetate, 298.15 K) was 0.00231. The solubility (mole fraction) (in methyl acetate, 303.15 K) was 0.00262, the solubility (mole fraction) (in methyl acetate, 308.15 K) was 0.00298 and the solubility (mole fraction) (in methyl acetate, 313.15 K) was 0.0033. It also gave a solubility (mole fraction) (in methyl acetate, 318.15 K) of 0.00355, a solubility (mole fraction) (in methyl acetate, 323.15 K) of 0.0038 and a solubility (mole fraction) (in n-butanol, 283.15 K) of 0.00123. It also gave a solubility (mole fraction) (in n-butanol, 288.15 K) of 0.00154, a solubility (mole fraction) (in n-butanol, 293.15 K) of 0.00184 and a solubility (mole fraction) (in n-butanol, 298.15 K) of 0.00219. It also gave a solubility (mole fraction) (in n-butanol, 303.15 K) of 0.00249, a solubility (mole fraction) (in n-butanol, 308.15 K) of 0.00283 and a solubility (mole fraction) (in n-butanol, 313.15 K) of 0.00314. The solubility (mole fraction) (in n-butanol, 318.15 K) was 0.0037, the solubility (mole fraction) (in n-butanol, 323.15 K) was 0.00427 and the solubility (mole fraction) (in n-propanol, 283.15 K) was 0.0012. For the same compound, the solubility (mole fraction) (in n-propanol, 288.15 K) was 0.00146, the solubility (mole fraction) (in n-propanol, 293.15 K) was 0.00177 and the solubility (mole fraction) (in n-propanol, 298.15 K) was 0.002. It also gave a solubility (mole fraction) (in n-propanol, 303.15 K) of 0.00234, a solubility (mole fraction) (in n-propanol, 308.15 K) of 0.00266 and a solubility (mole fraction) (in n-propanol, 313.15 K) of 0.00308. It also gave a solubility (mole fraction) (in n-propanol, 318.15 K) of 0.00361, a solubility (mole fraction) (in n-propanol, 323.15 K) of 0.00432 and a solubility (mole fraction) (in water, 283.15 K) of 5.3e-06. For the same compound, the solubility (mole fraction) (in water, 288.15 K) was 6.88e-06, the solubility (mole fraction) (in water, 293.15 K) was 8.16e-06 and the solubility (mole fraction) (in water, 298.15 K) was 9.38e-06. For the same compound, the solubility (mole fraction) (in water, 303.15 K) was 1.16e-05, the solubility (mole fraction) (in water, 308.15 K) was 1.26e-05 and the solubility (mole fraction) (in water, 313.15 K) was 1.51e-05. It also gave a solubility (mole fraction) (in water, 318.15 K) of 1.74e-05 and a solubility (mole fraction) (in water, 323.15 K) of 2.06e-05.
